Source: ChEMBL document CHEMBL1255386, “Early viral kinetics of telbivudine and entecavir: results of a 12-week randomized exploratory study with patients with HBeAg-positive chronic hepatitis B” (Antimicrob Agents Chemother, 2010)

Legend:
Homo sapiens [1] = organism: Homo sapiens; test: Toxicity in HBeAg-positive chronic hepatitis B patient assessed as peripheral neuropathy at 0.5 mg/day; format: organism-based; conditions: in vivo
Homo sapiens [2] = organism: Homo sapiens; test: Toxicity in HBeAg-positive chronic hepatitis B patient assessed as increase in ALT level at 0.5 mg/day; format: organism-based; conditions: in vivo
Homo sapiens [3] = organism: Homo sapiens; test: Toxicity in HBeAg-positive chronic hepatitis B patient assessed as myalgia at 0.5 mg/day; format: organism-based; conditions: in vivo
Homo sapiens [4] = organism: Homo sapiens; test: Toxicity in HBeAg-positive chronic hepatitis B patient assessed as increase in AST level at 0.5 mg/day; format: organism-based; conditions: in vivo
Hepatitis B virus [5] = test: Antiviral activity against Hepatitis B virus in HBeAg-positive chronic hepatitis B patient assessed as mean efficiency factor of blocking virus production at 0.5 mg/day; format: functional
Homo sapiens [6] = organism: Homo sapiens; test: Toxicity in HBeAg-positive chronic hepatitis B patient assessed as proteinuria at 0.5 mg/day; format: organism-based; conditions: in vivo
Homo sapiens [7] = organism: Homo sapiens; test: Toxicity in HBeAg-positive chronic hepatitis B patient assessed as myringitis at 0.5 mg/day; format: organism-based; conditions: in vivo
Homo sapiens [8] = organism: Homo sapiens; test: Toxicity in HBeAg-positive chronic hepatitis B patient assessed as upper respiratory tract infection at 0.5 mg/day; format: organism-based; conditions: in vivo
Homo sapiens [9] = organism: Homo sapiens; test: Toxicity in HBeAg-positive chronic hepatitis B patient assessed as nausea at 0.5 mg/day; format: organism-based; conditions: in vivo
Homo sapiens [10] = test: Toxicity in HBeAg-positive chronic hepatitis B patient assessed as facial edema at 0.5 mg/day; format: organism-based; conditions: in vivo
Homo sapiens [11] = organism: Homo sapiens; test: Toxicity in HBeAg-positive chronic hepatitis B patient assessed as muscular weakness at 0.5 mg/day; format: organism-based; conditions: in vivo
Homo sapiens [12] = organism: Homo sapiens; test: Toxicity in HBeAg-positive chronic hepatitis B patient assessed as conjunctival hypermia at 0.5 mg/day; format: organism-based, Conjunctiva; conditions: in vivo
Homo sapiens [13] = organism: Homo sapiens; test: Toxicity in HBeAg-positive chronic hepatitis B patient assessed as chest discomfort at 0.5 mg/day; format: organism-based; conditions: in vivo
Homo sapiens [14] = organism: Homo sapiens; test: Toxicity in HBeAg-positive chronic hepatitis B patient assessed as insomnia at 0.5 mg/day; format: organism-based; conditions: in vivo
Homo sapiens [15] = organism: Homo sapiens; test: Toxicity in HBeAg-positive chronic hepatitis B patient assessed as headache at 0.5 mg/day; format: organism-based; conditions: in vivo
Homo sapiens [16] = organism: Homo sapiens; test: Toxicity in HBeAg-positive chronic hepatitis B patient assessed as hyperphosphatemia at 0.5 mg/day; format: organism-based; conditions: in vivo
Homo sapiens [17] = organism: Homo sapiens; test: Toxicity in HBeAg-positive chronic hepatitis B patient assessed as neutropenia at 0.5 mg/day; format: organism-based; conditions: in vivo
Homo sapiens [18] = organism: Homo sapiens; test: Toxicity in HBeAg-positive chronic hepatitis B patient assessed as gingival bleeding at 0.5 mg/day; format: organism-based; conditions: in vivo
Homo sapiens [19] = organism: Homo sapiens; test: Hepatotoxicity in HBeAg-positive chronic hepatitis B patient assessed as reduction in alanine aminotransferase level at 0.5 mg/day after 12 weeks (reference value: 170.2 IU/liter); format: toxicity, organism-based; conditions: in vivo, 2016 h
Homo sapiens [20] = organism: Homo sapiens; test: Toxicity in HBeAg-positive chronic hepatitis B patient assessed as vaginal hemorrhage at 0.5 mg/day; format: organism-based; conditions: in vivo
Homo sapiens [21] = organism: Homo sapiens; test: Toxicity in HBeAg-positive chronic hepatitis B patient assessed as nasophayngitis at 0.5 mg/day; format: organism-based; conditions: in vivo
Hepatitis B virus [22] = test: Antiviral activity against Hepatitis B virus in HBeAg-positive chronic hepatitis B patient assessed as mean viral clearance rate at 0.5 mg/day; format: functional
Homo sapiens [23] = organism: Homo sapiens; test: Toxicity in HBeAg-positive chronic hepatitis B patient assessed as abdominal discomfort at 0.5 mg/day; format: organism-based, Abdomen; conditions: in vivo
Hepatitis B virus [24] = test: Antiviral activity against Hepatitis B virus in HBeAg-positive chronic hepatitis B patient assessed as HBV DNA level in serum at 600 mg/day after 12 weeks (reference value: 10.29 log10copies/ml); format: functional
Hepatitis B virus [25] = test: Antiviral activity against Hepatitis B virus in HBeAg-positive chronic hepatitis B patient assessed as mean rate of infected cell loss at 0.5 mg/day; format: functional
Homo sapiens [26] = organism: Homo sapiens; test: Toxicity in HBeAg-positive chronic hepatitis B patient assessed as thrombocytopenia at 0.5 mg/day; format: organism-based; conditions: in vivo
Homo sapiens [27] = organism: Homo sapiens; test: Toxicity in HBeAg-positive chronic hepatitis B patient assessed as upper abdominal pain at 0.5 mg/day; format: organism-based, Abdomen; conditions: in vivo
Homo sapiens [28] = organism: Homo sapiens; test: Toxicity in HBeAg-positive chronic hepatitis B patient assessed as vomiting at 0.5 mg/day; format: organism-based; conditions: in vivo
Homo sapiens [29] = organism: Homo sapiens; test: Toxicity in HBeAg-positive chronic hepatitis B patient assessed as increase in blood CK level at 0.5 mg/day; format: organism-based; conditions: in vivo
Homo sapiens [30] = organism: Homo sapiens; test: Toxicity in HBeAg-positive chronic hepatitis B patient assessed as dyspnea at 0.5 mg/day; format: organism-based; conditions: in vivo
Homo sapiens [31] = organism: Homo sapiens; test: Toxicity in HBeAg-positive chronic hepatitis B patient assessed as hordeolum at 0.5 mg/day; format: organism-based; conditions: in vivo

## C=C1[C@H](CO)[C@@H](O)C[C@@H]1n1cnc2c(=O)[nH]c(N)nc21.O [ENTECAVIR]
Homo sapiens [1]
  Activity: Non-toxic
Homo sapiens [2]
  Activity: 1%
Homo sapiens [3]
  Activity: 0%
Homo sapiens [4]
  Activity: 0%
Hepatitis B virus [5]
  Activity: 99.2%
Homo sapiens [6]
  Activity: 1%
Homo sapiens [7]
  Activity: 1%
Homo sapiens [8]
  Activity: 2%
Homo sapiens [9]
  Activity: 2%
Homo sapiens [10]
  Activity: 1%
Homo sapiens [11]
  Activity: Non-toxic
Homo sapiens [12]
  Activity: 0%
Homo sapiens [13]
  Activity: 1%
Homo sapiens [14]
  Activity: 1%
Homo sapiens [15]
  Activity: 1%
Homo sapiens [16]
  Activity: 0%
Homo sapiens [17]
  Activity: 0%
Homo sapiens [18]
  Activity: 0%
Homo sapiens [19]
  Activity: 116.3 IU/L
Homo sapiens [20]
  Activity: 1%
Homo sapiens [21]
  Activity: 1%
Hepatitis B virus [22]
  Activity: 1.002 day⁻¹
Homo sapiens [23]
  Activity: 0%
Hepatitis B virus [24]
  Activity: 6.5
Hepatitis B virus [25]
  Activity: 0.071 day⁻¹
Homo sapiens [26]
  Activity: 0%
Homo sapiens [27]
  Activity: 0%
Homo sapiens [28]
  Activity: 1%
Homo sapiens [29]
  Activity: 3 patients
Homo sapiens [30]
  Activity: 0%
Homo sapiens [31]
  Activity: 1%
